Reference: patent US20150005347A1, “NITROGEN-CONTAINING HETEROCYCLIC DERIVATIVE HAVING 2-IMINO GROUP AND PEST CONTROL AGENT INCLUDING THE SAME” (MEIJI SEIKA PHARMA CO., LTD., priority 2012, published 2015)
Where two headings read alike, the source gives them in different places.

How the values were obtained:
Format in all cases: in vivo
Aulacophora femoralis = experiment: Pest control test of Aulacophora femoralis, cucumber leaf disk foliar spray
Description: Test Example 4 Pest Control Test of Aulacophora femoralis
(§1) A leaf disk having a diameter of 2.8 cm was cut out from a cucumber in pot culture, and a drug solution of the compound of the present invention at a predetermined concentration, which had been prepared so as to be a 50% acetone water (0.05% Tween20 available), was sprayed to the leaf disk. After an air drying process, adults were released thereto. Thereafter, the adults were left to stand in a thermostatic chamber (16 hours of light period-8 hours of dark period) at 25° C. […] Test in duplicate.
Mortality of adults(%)={number of dead adults/(number of survived adults+number of dead adults)}×100

Laodelphax striatella = experiment: Pest control test of Laodelphax striatella, soil irrigation treatment of rice seedling; settings: soil irrigation treatment
Text: <Soil Irrigation Treatment Test>
Test Example 10 Pest Control Test of Laodelphax striatellua
A rice seedling in pot culture was subjected to soil irrigation treatment with a drug solution of the compound of the present invention at a predetermined concentration, which had been prepared so as to be a 10% acetone water. Three days after the treatment, ten second instar larvae of Laodelphax striatella were each released thereto. Thereafter, the larvae were left to stand in a thermostatic chamber (16 hours of light period-8 hours of dark period) at 25° C. […] The test was performed in duplicate.
(§2) Mortality of larvae(%)={number of dead larvae/(number of survived larvae+number of dead larvae)}×100

Coptotermes formosanus = experiment: Pest control test of Coptotermes formosanus, treated filter paper; settings: 168 h, read-out: mortality of insects
Description: Test Example 27 Pest Control Test of Coptotermes formosanus
A filter paper was allowed to be soaked in a drug solution of the compound of the present invention at a predetermined concentration, which had been prepared with acetone. The filter paper was sufficiently blow-dried and then put into a plastic petri dish, and 5 insects of Coptotermes formosanus (worker ant) were each released thereto. Thereafter, the insects were left to stand in a thermostatic chamber (16 hours of light period-8 hours of dark period) at 25° C. […] The test was performed in duplicate.
Mortality of insects(%)={number of dead insects/(number of survived insects+number of dead insects)}×100

[1] = test system: Laodelphax striatella exhibiting drug resistance to fipronil; experiment: Foliar spray test, Laodelphax striatella exhibiting drug resistance to fipronil; settings: Laodelphax striatellus, 144 h, read-out: mortality of larvae
Description: Test Example 15 Pest Control Test of Laodelphax striatella
A drug solution of the compound of the present invention at a predetermined concentration, which had been prepared so as to be a 50% acetone water (0.05% Tween20 available), was foliar sprayed to a rice seedling in pot culture. […] Thereafter, the larvae were left to stand in a thermostatic chamber (16 hours of light period-8 hours of dark period) at 25° C. […] Test in duplicate.
as §2
Further, for the origin of test pests, insects of Laodelphax striatella collected outdoors within the Kumamoto prefecture in 2006 were used.

Aphis gossypii = experiment: Pest control test of Aphis gossypii, cucumber leaf disk foliar spray; settings: Aphis gossypii, foliar
Method in brief: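 Cucumber leaf disks (2.0 cm) sprayed with compound at a set concentration in 50% acetone water with 0.05% Tween20, air-dried, then infested with first instar larvae; held at 25 °C, 16 h light/8 h dark. Larval mortality (%) = dead/(survived + dead) × 100; duplicate.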

housefly instar larvae = experiment: Pest control test of housefly instar larvae, treated bait; settings: Musca domestica, read-out: mortality of larvae, chrysalises and adults
Description: Test Example 22 Pest Control Test of Housefly Instar Larvae
Compound 1-20 was blended with an extremely small amount of DMSO, and then the resulting mixture was dissolved in deionized water to adjust the drug solution. 10 ml of the drug solution adjusted to be 30 ppm was added to 10 g of powder in which wheat bran, MF feed (Oriental Yeast Co., Ltd.) and dry yeast had been mixed in a ratio of 25:5:1, and the mixture was mixed well to prepare a bait for housefly instar larvae. A 50 ml Falcon tube was slightly filled with the bait including the compound, and 20 eggs were released thereto. The mouth of the Falcon tube was covered with a mesh-topped lid, and the tube was allowed to stand at 25° C. Twenty days after the drug treatment, the numbers of instar larvae, chrysalises and adults were measured, and the mortality of larvae, chrysalises and adults was calculated by the following equation. The test was performed by repeating each treatment twice.
Mortality of larvae,chrysalises and adults(%)={number of dead larvae,chrysalises and adults/(number of survived larvae,chrysalises and adults+number of dead larvae,chrysalises and adults)}×100

Spodoptera litura = experiment: Pest control test against Spodoptera litura, cabbage leaf disk foliar spray; settings: Spodoptera litura, foliar
Description: Test Example 2 Pest Control Test Against Spodoptera litura
as §1, with “of 5.0” for “of 2.8”, “a cabbage” for “a cucumber”, “process, third instar larvae” for “process, adults”, “the larvae” for “the adults”
as §2

[2] = test system: imidacloprid susceptible populations of Nilaparvata lugens; experiment: Soil irrigation test, imidacloprid susceptible populations of Nilaparvata lugens
Method in brief: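 Potted rice seedlings soil-irrigated with compound in 10% acetone water at set concentrations; larvae held at 25 °C, 16 h light/8 h dark. Mortality % = dead/(dead + survivors) ×100, duplicate. Susceptible population: Kagoshima-collected, long-term lab-reared.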

[3] = read-out: % Mortality, Test Example4 Aulacophora femoralis
[4] = 72 h, read-out: mortality of larvae
[5] = read-out: % Mortality, Test Example3 Aphis gossypii

SMILES: FC(F)(F)C(=S)/N=c1\ccccn1Cc1ccc(Cl)nc1 [Compound 1-20, N-[1-((6-chloropyridin-3-yl)methyl)pyridin-2(1H)-ylidene]-2,2,2-trifluoroethanethioamide]
- mortality at 10 ppm (Aulacophora femoralis; 72 h, read-out: mortality of adults): ≥ 80%
- mortality at 1.25 ppm (Aulacophora femoralis; [3]): 100%
- mortality at 5 ppm (Aulacophora femoralis; [3]): 100%
- % Mortality, Test Example 10 Laodelphax striatella (Laodelphax striatella; 0.005 mg/pot): 75%
- % Mortality, Test Example 10 Laodelphax striatella (Laodelphax striatella; 0.01 mg/pot): 91%
- % Mortality, Test Example 10 Laodelphax striatella (Laodelphax striatella; 0.05 mg/pot): 100%
- mortality at 0.5 µg/cm2 (Coptotermes formosanus): 100%
- mortality at 1.25 ppm [1]: ≥ 80%
- mortality at 20 ppm (Aphis gossypii; [4]): ≥ 80%
- mortality at 100 ppm (Aphis gossypii; [4]): ≥ 80%
- mortality at 1.25 ppm (Aphis gossypii; [5]): 75%
- mortality at 5 ppm (Aphis gossypii; [5]): 100%
- mortality at 20 ppm (Aphis gossypii; [5]): 100%
- mortality at 100 ppm (Aphis gossypii; [5]): 100%
- mortality at 30 ppm (housefly instar larvae): 100%
- mortality at 100 ppm (Spodoptera litura; [4]): ≥ 80%
- mortality at 100 ppm (Spodoptera litura; read-out: % Mortality, Test Example2 Spodoptera litura): 90%
- Insecticidal effects against Nilaparvata lugens (mortality of larvae %), Susceptible populations three days after the treatment ([2]; Rate 0.01 mg/pot): 95%
- Insecticidal effects against Nilaparvata lugens (mortality of larvae %), Susceptible populations three days after the treatment ([2]; Rate 0.05 mg/pot): 96%
